Assay results reported in the NIST ThermoML archive (doi:10.1021/je0342062).
Numbers after ± are expanded uncertainties.

Key:
[1] = 101.33 kPa, Liquid, Vibrating tube method
[2] = excess molar enthalpy (molar enthalpy of mixing); xn = mol fraction of the nth substance listed; conditions: 308.15 K, 101.32 kPa, Liquid
[3] = xn = mol fraction of the nth substance listed; conditions: 308.15 K, 101.32 kPa, Liquid, Vibrating tube method

OCc1ccccc1 [benzenemethanol]
[1]
Conditions | mass density [kg/m3]
298.15 K | 1041.46 ± 0.53
308.15 K | 1033.7 ± 0.52

OCc1ccccc1 [benzenemethanol] + OCCO
Conditions | excess molar enthalpy [kcal/mol] | mass density [kg/m3]
[2], x2 = 0.0719 | 0.0277 ± 0.0016 | –
[2], x2 = 0.1341 | 0.0409 ± 0.00201 | –
[2], x2 = 0.1886 | 0.0482 ± 0.00222 | –
[2], x2 = 0.2365 | 0.05 ± 0.00229 | –
[2], x2 = 0.3173 | 0.0512 ± 0.00232 | –
[2], x2 = 0.3826 | 0.0503 ± 0.00229 | –
[2], x2 = 0.4817 | 0.048 ± 0.00222 | –
[2], x2 = 0.5533 | 0.0457 ± 0.00215 | –
[2], x2 = 0.6502 | 0.0402 ± 0.00198 | –
[2], x2 = 0.7361 | 0.0331 ± 0.00177 | –
[2], x2 = 0.788 | 0.0282 ± 0.00163 | –
[2], x2 = 0.848 | 0.0206 ± 0.00139 | –
[2], x2 = 0.8815 | 0.017 ± 0.00127 | –
[2], x2 = 0.9177 | 0.0114 ± 0.0011 | –
[2], x2 = 0.937 | 0.00875 ± 0.001 | –
[2], x2 = 0.9571 | 0.00602 ± 0.000932 | –
[2], x2 = 0.9781 | 0.00299 ± 0.000837 | –
[3], x2 = 0.0395 | – | 1035.06 ± 0.52
[3], x2 = 0.1313 | – | 1038.54 ± 0.53
[3], x2 = 0.2622 | – | 1044.29 ± 0.53
[3], x2 = 0.3189 | – | 1047.1 ± 0.53
[3], x2 = 0.4645 | – | 1055.28 ± 0.54
[3], x2 = 0.5057 | – | 1057.9 ± 0.54
[3], x2 = 0.609 | – | 1065.04 ± 0.54
[3], x2 = 0.6863 | – | 1071.03 ± 0.54
[3], x2 = 0.7371 | – | 1075.32 ± 0.55
[3], x2 = 0.8097 | – | 1081.99 ± 0.55
[3], x2 = 0.879 | – | 1088.96 ± 0.55
[3], x2 = 0.9638 | – | 1098.48 ± 0.56

OCc1ccccc1 [benzenemethanol] + OCCOCCO
Conditions | excess molar enthalpy [kcal/mol] | mass density [kg/m3]
[2], x2 = 0.0434 | -0.0338 ± 0.00179 | –
[2], x2 = 0.0833 | -0.0564 ± 0.00239 | –
[2], x2 = 0.1199 | -0.0717 ± 0.00287 | –
[2], x2 = 0.1537 | -0.0822 ± 0.00335 | –
[2], x2 = 0.2142 | -0.0945 ± 0.00359 | –
[2], x2 = 0.2665 | -0.101 ± 0.00382 | –
[2], x2 = 0.3528 | -0.105 ± 0.00406 | –
[2], x2 = 0.4208 | -0.107 ± 0.00406 | –
[2], x2 = 0.5216 | -0.109 ± 0.00406 | –
[2], x2 = 0.6206 | -0.107 ± 0.00406 | –
[2], x2 = 0.6856 | -0.102 ± 0.00382 | –
[2], x2 = 0.7658 | -0.0887 ± 0.00359 | –
[2], x2 = 0.8135 | -0.0791 ± 0.00311 | –
[2], x2 = 0.8674 | -0.0599 ± 0.00263 | –
[2], x2 = 0.897 | -0.0501 ± 0.00229 | –
[2], x2 = 0.929 | -0.0362 ± 0.00186 | –
[2], x2 = 0.9632 | -0.0197 ± 0.00136 | –
[3], x2 = 0.0719 | – | 1038.79 ± 0.53
[3], x2 = 0.1308 | – | 1042.93 ± 0.53
[3], x2 = 0.2285 | – | 1049.76 ± 0.53
[3], x2 = 0.3115 | – | 1055.63 ± 0.54
[3], x2 = 0.4139 | – | 1062.92 ± 0.54
[3], x2 = 0.5312 | – | 1071.36 ± 0.54
[3], x2 = 0.6035 | – | 1076.6 ± 0.55
[3], x2 = 0.7277 | – | 1085.7 ± 0.55
[3], x2 = 0.8237 | – | 1092.77 ± 0.56
[3], x2 = 0.8597 | – | 1095.43 ± 0.56
[3], x2 = 0.8984 | – | 1098.29 ± 0.56
[3], x2 = 0.9539 | – | 1102.43 ± 0.56

OCc1ccccc1 [benzenemethanol] + OCCOCCOCCO
Conditions | excess molar enthalpy [kcal/mol] | mass density [kg/m3]
[2], x2 = 0.0313 | -0.0333 ± 0.000908 | –
[2], x2 = 0.0606 | -0.0576 ± 0.00129 | –
[2], x2 = 0.0883 | -0.0752 ± 0.0016 | –
[2], x2 = 0.1143 | -0.0883 ± 0.00182 | –
[2], x2 = 0.1623 | -0.104 ± 0.00208 | –
[2], x2 = 0.2047 | -0.111 ± 0.00222 | –
[2], x2 = 0.2792 | -0.118 ± 0.00232 | –
[2], x2 = 0.3405 | -0.12 ± 0.00237 | –
[2], x2 = 0.4366 | -0.121 ± 0.00237 | –
[2], x2 = 0.5376 | -0.121 ± 0.00237 | –
[2], x2 = 0.6078 | -0.12 ± 0.00237 | –
[2], x2 = 0.6992 | -0.109 ± 0.00217 | –
[2], x2 = 0.756 | -0.0968 ± 0.00196 | –
[2], x2 = 0.823 | -0.0791 ± 0.00165 | –
[2], x2 = 0.8613 | -0.0665 ± 0.00143 | –
[2], x2 = 0.9029 | -0.0502 ± 0.00117 | –
[2], x2 = 0.949 | -0.0239 ± 0.000741 | –
[3], x2 = 0.0519 | – | 1039.48 ± 0.53
[3], x2 = 0.174 | – | 1051.93 ± 0.53
[3], x2 = 0.2411 | – | 1058.18 ± 0.54
[3], x2 = 0.3373 | – | 1066.69 ± 0.54
[3], x2 = 0.4327 | – | 1074.57 ± 0.55
[3], x2 = 0.5295 | – | 1082.04 ± 0.55
[3], x2 = 0.632 | – | 1089.43 ± 0.55
[3], x2 = 0.7533 | – | 1097.6 ± 0.56
[3], x2 = 0.8256 | – | 1102.12 ± 0.56
[3], x2 = 0.8572 | – | 1104.07 ± 0.56
[3], x2 = 0.9337 | – | 1108.5 ± 0.56
[3], x2 = 0.961 | – | 1110.01 ± 0.57

OCCOCCO [diethylene glycol]
[1]
Conditions | mass density [kg/m3]
298.15 K | 1112.38 ± 0.57
308.15 K | 1105.88 ± 0.56

OCCOCCOCCO [triethylene glycol]
[1]
Conditions | mass density [kg/m3]
298.15 K | 1119.78 ± 0.57
308.15 K | 1112.61 ± 0.57
